Experimental data as given in US7547697B2, “Alkyl-pyridazine derivatives as 11b-HSD1 inhibitors” (Hoffmann-La Roche Inc., priority 2006, dated 2009).

Target: T1, human 11beta-HSD1 (Homo sapiens, UniProt P28845)
T1 construct: expressed in transfected cells; host or cells: HEK293 cells (ATCC CRL-1573), transient transfection with pcDNA3 construct; microsomal fraction used
Test: Microsome assay (cortisone to cortisol conversion, ELISA detection)
Assay type: biochemical
Details: microsomes from HEK293 cells transiently expressing human 11beta-HSD1; cortisone 50-200 nM, NADPH 1 mM, 60 min at 37° C.; read-out: h 11-beta-HSD 1 IC50
Experimental: The cDNA encoding the human 11beta-HSD1 protein was cloned into the expression vector pcDNA3 ([…]). This construct (for details see Alex Odermatt et al.; J Biol Chem., 1999, Vol. 274, Issue 40, 28762-28770) was used to transiently express the protein in HEK293 cells (ATCC number: CRL-1573, described in Graham, F. L., Smiley, J., Russell, W. C., Nairn, R.; (1977)) using lipofectamine. 48h after transfection cells were washed twice with ice-cold PBS (Phosphate buffered Saline). To 1 volume of cell suspension in PBS 2 volumes of ice-cold lysis buffer (50 mM Tris; pH 7.5; 1 mM EDTA; 100 mM NaCl) were added. The cells were lysed by Potter-homogenization (20 strokes). The resulting homogenate was sonicated with a tip sonicator (10% output; 2×30 sec.) and cleared by a low speed centrifugation (10 min×9000 g; 4° C.). The microsomal fraction was collected by a high speed centrifugation (60 min×110,000 g). […]
Microsomes isolated from HEK293 cells transiently expressing human 11beta-HSD1 (for details see above) were incubated in assay buffer (100 mM NaCl; 1 mM EDTA; 1 mM EGTA; 1 mM MgCl; 250 mM Sucrose; 20 mM Tris pH 7.4; Cortisone 50-200 nM and NADPH 1 mM) together with different concentrations of test substances. […] The amount of Cortisol produced in this assay was determined using a commercially available, ELISA-based Cortisol-detection kit (Distributed by Assay Design, Inc.). […]

T1 sequence (P28845 whole entry): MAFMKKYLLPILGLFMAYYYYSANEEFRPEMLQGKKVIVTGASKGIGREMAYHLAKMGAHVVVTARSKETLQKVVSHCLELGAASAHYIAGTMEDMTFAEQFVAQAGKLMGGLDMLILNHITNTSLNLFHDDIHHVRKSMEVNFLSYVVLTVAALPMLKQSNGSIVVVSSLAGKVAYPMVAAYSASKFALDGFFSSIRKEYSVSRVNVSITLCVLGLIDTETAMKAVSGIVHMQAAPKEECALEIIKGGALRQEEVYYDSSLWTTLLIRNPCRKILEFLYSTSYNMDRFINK

| SMILES | IC50 [µM] |
| --- | --- |
| CC(C)(C)Cc1cc2c(nn1)CCCCCC2 [Example 1, 3-(2,2-Dimethyl-propyl)-5,6,7,8,9,10-hexahydro-cycloocta[c]pyridazine] | 0.006 |
| CC(C)(C)Cc1cc2c(nn1)[C@@]1(C)CC[C@@H]2C1(C)C [Example 3, (1S,8R)-5-(2,2-Dimethyl-propyl)-1,11,11-trimethyl-3,4-diaza-tricyclo[6.2.1.0^2,7]undeca-2,4,6-triene] | 0.014 |
